By melting point is commonly meant the temperature, or range, at which the solid turns liquid.

Experimental findings from US11753407B2, “Compounds for treating spinal muscular atrophy” (PTC Therapeutics, Inc., priority 2012, dated 2023) are described below.

Structures are written as SMILES.

For data set [1], the system named is SMN2 minigene mRNA (SMN2-A minigene) in HEK293H cells. The data set is described as follows: SMN2 minigene mRNA splicing RT-qPCR assay in cultured cells. The data set is classed as cell-based, human. The following applies: Homo sapiens, HEK293-H; concentration increasing full length SMN2 mRNA 1.5-fold relative to vehicle-treated cells; HEK293H cells with SMN2-A minigene, 24 hours, 7-point concentration data; read-out: EC1.5x for production of full length SMN2 mRNA. The gist of the method: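 EC1.5× values derive from a 24 h treatment of SMN2-A minigene HEK293H cells and GAPDH-normalized RT-qPCR of exon 7-included minigene mRNA relative to vehicle-treated cells.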
Background: Quantitative PCR measures a nucleic acid by following its amplification.

For data set [2], the system named is Smn protein in SMA patient fibroblast cells (GM03813). The data set is described as follows: Smn protein assay in cultured cells (SMN HTRF). The data set is classed as cell-based, human. The following applies: SMA patient fibroblast cells, 48 hours; for EC1.5x for Smn protein expression: 7-point concentration curve, SMN HTRF, concentration producing 1.5 times Smn protein vs DMSO vehicle control; for maximum fold (Fold) increase of Smn protein: 7-point concentration data, fold relative to vehicle control. The method in brief: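 Cells were cultured 72 h, seeded at 5,000/well and dosed with seven concentrations (3.16-fold apart) for 48 h. HTRF on lysates, read at 665 and 620 nm, gave blank-corrected ΔF values relative to DMSO. Potency is reported as EC1.5×, efficacy as maximal fold Smn increase.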

With `CCN(CC)CC1CN(c2ccc3nc(-c4cc5c(C)nc(C)cn5n4)cc(=O)n3c2)C1` [Compound 781, 7-{3-[(diethylamino)methyl]azetidin-1-yl}-2-(4,6-dimethylpyrazolo[1,5-a]pyrazin-2-yl)-4H-pyrido[1,2-a]pyrimidin-4-one], the melting point lay in the range of 205 to 207 °C. Moreover, in data set [1], the EC (1.5-fold increase) was below 0.1 µM. Also, in data set [2], the “EC1.5x for Smn protein expression” value is “**** (an EC1.5x≤0.3 μM is indicated by four stars (****))” and the “maximum fold (Fold) increase of Smn protein” value (“maximum fold (Fold) increase” below) is reported as “***** (a fold increase >1.65 is indicated by five stars (*****))”.

For the compound `COc1cc(F)cc(-c2cc(=O)n3cc(N4CCNCC4)ccc3n2)c1` [Compound 139, 2-(3-fluoro-5-methoxyphenyl)-7-(piperazin-1-yl)-4H-pyrido[1,2-a]pyrimidin-4-one], the melting point is 168 to 170 °C. Moreover, the EC (1.5-fold increase) in data set [1] fell in the range of 1 to 3 µM. In data set [2], the “maximum fold (Fold) increase” value is “*** (a fold increase between >1.35 and ≤1.5 is indicated by three stars (***))”.

`CCN1CCC(c2ccc3nc(-c4cc(Cl)c5nc(C)cn5c4)cc(=O)n3n2)CC1` [Compound 525, 2-(8-chloro-2-methylimidazo[1,2-a]pyridin-6-yl)-7-(1-ethylpiperidin-4-yl)-4H-pyrimido[1,2-b]pyridazin-4-one] came in with a melting point of 284 to 286 °C. Moreover, in data set [1], the EC (1.5-fold increase) fell in the range of 0.1 to 0.3 µM. In data set [2], the “EC1.5x for Smn protein expression” value was “*** (an EC1.5× between >0.3 μM and ≤1 μM is indicated by three stars (***))”; the “maximum fold (Fold) increase” value is “***** (a fold increase >1.65 is indicated by five stars (*****))”.

On to `Cc1cn2cc(-c3cc(=O)n4cc(N5C[C@@H](C)N[C@@H](C)C5)ccc4n3)cc2c(C)n1` [Compound 695, 7-[(3R,5S)-3,5-dimethylpiperazin-1-yl]-2-(1,3-dimethylpyrrolo[1,2-a]pyrazin-7-yl)-4H-pyrido[1,2-a]pyrimidin-4-one], for which the melting point was 254 to 256 °C. In data set [1], the EC (1.5-fold increase) is below 0.1 µM. Also, in data set [2], the “EC1.5x for Smn protein expression” value was “**** (an EC1.5x≤0.3 μM is indicated by four stars (****))” and the “maximum fold (Fold) increase” value is “***** (a fold increase >1.65 is indicated by five stars (*****))”.

The compound `Cc1cn2cc(-c3cc(=O)n4cc(N5CCN[C@H](C)C5)ccc4n3)cc(Cl)c2n1` [Compound 290, 2-(8-chloro-2-methylimidazo[1,2-a]pyridin-6-yl)-7-[(3R)-3-methylpiperazin-1-yl]-4H-pyrido[1,2-a]pyrimidin-4-one] returned a melting point of 236 to 239 °C. In addition, the EC (1.5-fold increase) in data set [1] is below 0.1 µM. In data set [2], the “EC1.5x for Smn protein expression” value was “**** (an EC1.5x≤0.3 μM is indicated by four stars (****))” and the “maximum fold (Fold) increase” value is listed as “***** (a fold increase >1.65 is indicated by five stars (*****))”.

Regarding `COCCN1CCN(c2ccc3nc(-c4cc(F)c5nc(C)cn5c4)cc(=O)n3c2)C[C@@H]1C` [Compound 538, 2-(8-fluoro-2-methylimidazo[1,2-a]pyridin-6-yl)-7-[(3S)-4-(2-methoxyethyl)-3-methylpiperazin-1-yl]-4H-pyrido[1,2-a]pyrimidin-4-one], the melting point fell in the range of 215 to 219 °C. Moreover, the EC (1.5-fold increase) in data set [1] is below 0.1 µM. For the same compound, in data set [2], the “EC1.5x for Smn protein expression” value was “*** (an EC1.5× between >0.3 μM and ≤1 μM is indicated by three stars (***))”; the “maximum fold (Fold) increase” value was “**** (a fold increase between >1.5 and ≤1.65 is indicated by four stars (****))”.

In turn, `Cc1cn2nc(-c3cc(=O)n4cc(C5=CC(C)(C)NC(C)(C)C5)ccc4n3)cc2c(C)n1` [Compound 744, 2-(4,6-dimethylpyrazolo[1,5-a]pyrazin-2-yl)-7-(2,2,6,6-tetramethyl-1,2,3,6-tetrahydropyridin-4-yl)-4H-pyrido[1,2-a]pyrimidin-4-one] gave a melting point of 218 to 221 °C. Besides, in data set [1], the EC (1.5-fold increase) was below 0.1 µM. Further, in data set [2], the “EC1.5x for Smn protein expression” value was “*** (an EC1.5× between >0.3 μM and ≤1 μM is indicated by three stars (***))”; the “maximum fold (Fold) increase” value is “*** (a fold increase between >1.35 and ≤1.5 is indicated by three stars (***))”.
